Experimental data: the Kinase Knowledgebase extract (Sharma et al. 2016)
pIC50: −log10 of the molar value. Values joined by “and” are separate entries in the source; they are usually repeats but may differ in a detail not shown here. Equal values may be shown once.

biological target: PIK3CD (Human) (UniProt O00329); assay: Enzyme Assay
Sequence (O00329 whole entry, looked up): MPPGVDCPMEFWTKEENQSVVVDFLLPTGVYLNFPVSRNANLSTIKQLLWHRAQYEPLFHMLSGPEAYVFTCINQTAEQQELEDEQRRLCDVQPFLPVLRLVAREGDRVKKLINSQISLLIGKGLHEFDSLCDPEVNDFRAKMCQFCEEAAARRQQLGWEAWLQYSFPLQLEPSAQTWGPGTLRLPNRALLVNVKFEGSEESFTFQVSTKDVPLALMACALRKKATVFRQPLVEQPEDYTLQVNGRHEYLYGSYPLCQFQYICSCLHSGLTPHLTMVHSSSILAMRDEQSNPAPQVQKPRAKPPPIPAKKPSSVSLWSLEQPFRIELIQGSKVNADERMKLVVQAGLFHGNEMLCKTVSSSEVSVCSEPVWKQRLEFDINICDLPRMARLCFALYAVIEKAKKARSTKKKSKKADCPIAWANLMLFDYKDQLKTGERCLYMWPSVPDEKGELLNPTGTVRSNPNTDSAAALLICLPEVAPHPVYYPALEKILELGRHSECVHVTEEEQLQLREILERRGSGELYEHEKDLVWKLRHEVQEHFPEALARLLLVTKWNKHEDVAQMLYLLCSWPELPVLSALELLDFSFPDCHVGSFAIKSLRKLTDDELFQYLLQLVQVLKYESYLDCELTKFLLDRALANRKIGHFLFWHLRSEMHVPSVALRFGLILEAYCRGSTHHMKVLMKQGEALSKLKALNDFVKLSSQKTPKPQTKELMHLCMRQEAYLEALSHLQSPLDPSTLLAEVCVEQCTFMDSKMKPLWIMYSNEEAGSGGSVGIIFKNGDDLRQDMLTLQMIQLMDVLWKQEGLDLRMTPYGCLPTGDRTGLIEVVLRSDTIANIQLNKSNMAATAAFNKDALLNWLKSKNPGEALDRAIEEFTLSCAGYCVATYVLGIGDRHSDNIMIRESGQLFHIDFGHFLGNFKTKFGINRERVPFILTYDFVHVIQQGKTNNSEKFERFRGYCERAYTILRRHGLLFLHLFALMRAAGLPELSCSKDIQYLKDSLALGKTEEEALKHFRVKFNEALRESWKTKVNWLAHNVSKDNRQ

Row | SMILES | pIC50
1 | CCn1c(-c2cnc(OC)c(C)c2)nc2c(O[C@H]3CCN(C(=O)OC(C)(C)C)C3)ncnc21 | 9.15
2 | CCn1ncc(-c2nc3c(O[C@H]4CCN(C(=O)C5CCOCC5)C4)ncnc3n2CC)c1C | > 9.00
3 | CCn1ncc(-c2nc3c(OC4CN(C(=O)OC(C)(C)C)C4)ncnc3n2C)c1C | 7.07
4 | CCn1ncc(-c2nc3c(O[C@H]4CCN(C(=O)c5nnc(N(C)C)o5)C4)ncnc3n2C)c1C | 7.17
5 | CCC(=O)N1CC[C@H](Oc2ncnc3c2nc(-c2cnn(C(C)(C)C)c2)n3C)C1 | 8.33
6 | CCC(=O)N1CC[C@H](Oc2ncnc3c2nc(-c2ccc4[nH]ccc4c2)n3C)C1 | 7.43
7 | CCn1c(-c2cnc(C)nc2)nc2c(OC3CCC(NC(=O)C4CCOCC4)C3)ncnc21 (stereo unspecified) | 6.77
8 | CCn1c(-c2cnc3[nH]ccc3c2)nc2c(O[C@H]3CCN(C(=O)C4CC4)C3)ncnc21 | > 9.00
9 | CCn1c(-c2cnc(C)nc2)nc2c(O[C@H]3CCN(C(=O)[C@H]4CCC[C@H]4N)C3)ncnc21 | 7.60
10 | CCn1c(N2CCC(C)CC2)nc2c(O[C@H]3CCN(C(=O)OC(C)(C)C)C3)ncnc21 | 6.42
11 | CCn1ncc(-c2nc3c(O[C@H]4CCN(S(=O)(=O)CC)C4)ncnc3n2C)c1C | 6.70
12 | CCn1ncc(-c2nc3c(O[C@H]4CCN(C(=O)c5cc(C(F)(F)F)nn5C)C4)ncnc3n2C)c1C | 7.59
13 | CCn1c(N2CCC(c3ccccc3)CC2)nc2c(O[C@H]3CCN(C(=O)OC(C)(C)C)C3)ncnc21 | 6.92
14 | CCn1ncc(-c2nc3c(O[C@H]4CCN(C(C)=O)C4)ncnc3n2C)c1C | 7.25
15 | CCCN1CC[C@H](Oc2ncnc3c2nc(-c2cnn(CC)c2C)n3C)C1 | 6.42
16 | CCC(=O)N1CC[C@H](Oc2ncnc3c2nc(-c2ccc(OC)c(C(F)(F)F)c2)n3C)C1 | 8.60
17 | CCn1ncc(-c2nc3c(O[C@H]4CCN(c5ncnc6sccc56)C4)ncnc3n2C)c1C | 8.24
18 | CCC(=O)N1CC[C@H](Oc2ncnc3c2nc(-c2cnn4c2CCC4)n3C)C1 | 7.64
19 | CCn1c(-c2cnc(OC)c(F)c2)nc2c(O[C@H]3CCN(C(=O)c4ccn(C)n4)C3)ncnc21 | > 9.00
20 | CCC(=O)N1CC[C@H](Oc2ncnc3c2nc(-c2ccc(OC)c(C)c2)n3C)C1 | 8.34
21 | CCn1c(-c2cnc(C)nc2)nc2c(O[C@@H]3CN(C(=O)C4CC4)C[C@H]3OC)ncnc21 | 7.39

Row | SMILES | pIC50
22 | CCn1c(-c2cnc(C)nc2)nc2c(OC3(C)CCN(C(=O)C4CC4)C3)ncnc21 (stereo unspecified) | 8.06
23 | CCn1c(-c2cnc(C)nc2)nc2c(O[C@H]3CCN(C(=O)C4CC4)C3)ncnc21 | 8.55
24 | CCC(=O)N1CC[C@H](Oc2ncnc3[nH]c(-c4cnn(CC)c4C)nc23)C1 | 7.62
25 | CCn1c(-c2ccc(C(F)(F)F)nc2)nc2c(O[C@H]3CCN(C(=O)C4CC4)C3)ncnc21 | 8.52
26 | CCn1ncc(-c2nc3c(O[C@H]4CCN(C(=O)C5CC(=O)N(C(C)C)C5)C4)ncnc3n2C)c1C (stereo partly specified) | 8.00
27 | CCn1c(-c2cnc(C)nc2)nc2c(O[C@H]3CCN(C(=O)C4(N)CCC4)C3)ncnc21 | 7.30
28 | CCn1ncc(-c2nc3c(O[C@H]4CCN(C(=O)c5nc6cc(Cl)ccn6n5)C4)ncnc3n2C)c1C | 6.07
29 | CCn1c(-c2ccc(C(F)(F)F)nc2)nc2c(O[C@H]3CCN(C(=O)N4CC(OC)C4)C3)ncnc21 | > 9.00
30 | CCn1ncc(-c2nc3c(O[C@H]4CCN(c5ncccn5)C4)ncnc3n2C)c1C | 7.68
31 | CCn1ncc(-c2nc3c(O[C@H]4CCN(C(=O)c5cnoc5C(C)C)C4)ncnc3n2C)c1C | 7.39
32 | CCn1ncc(-c2nc3c(O[C@H]4CCN(C(=O)c5cccn5C)C4)ncnc3n2C)c1C | 8.06
33 | CCn1c(-c2cnc(C)nc2)nc2c(O[C@H]3C[C@@H](NC(=O)OC(C)(C)C)C3)ncnc21 | 7.02 and 6.66
34 | CCC(=O)N1CC[C@H](Oc2ncnc3c2nc(-c2cc(O)cc(F)c2)n3C)C1 | 8.42
35 | CCn1ncc(-c2nc3c(O[C@H]4CCN(C(=O)c5cc(C)on5)C4)ncnc3n2C)c1C | 7.92
36 | CCn1ncc(-c2nc3c(O[C@H]4CCN(C(C)c5ccccc5)C4)ncnc3n2C)c1C (stereo partly specified) | 6.57
37 | CCn1c(-c2cnc(C)nc2)nc2c(O[C@H]3CCN(c4cccnc4)C3)ncnc21 | 8.00
38 | CCn1ncc(-c2nc3c(S[C@H]4CCN(C(=O)c5ccn(C)n5)C4)ncnc3n2C)c1C | 7.72
39 | CCn1ncc(-c2nc3c(CC4CCN(C(=O)C5CCOCC5)C4)ncnc3n2C)c1C (stereo unspecified) | 6.54
40 | CCn1c(N(C)CC(C)C)nc2c(O[C@H]3CCN(C(=O)OC(C)(C)C)C3)ncnc21 | 6.82
41 | CCn1ncc(-c2nc3c(O[C@H]4CCN(C(=O)C5CCc6nnnn65)C4)ncnc3n2C)c1C (stereo partly specified) | 7.64
42 | CCn1ncc(-c2nc3c(S(=O)(=O)[C@H]4CCN(C(=O)OC(C)(C)C)C4)ncnc3n2C)c1C | 6.80

Row | SMILES | pIC50
43 | CCn1c(-c2cnc(C)nc2)nc2c(O[C@H]3CCN(c4ccccc4C)C3)ncnc21 | 7.07
44 | CCn1c(-c2ccc(OC(F)(F)F)cc2)nc2c(O[C@H]3CCN(C(=O)C4CC4)C3)ncnc21 | 8.03
45 | CCn1ncc(-c2nc3c(O[C@H]4CCN(c5cncc(C)n5)C4)ncnc3n2C)c1C | 7.59
46 | CCn1ncc(-c2nc3c(O[C@H]4CCN(Cc5ccc(N(C)C)cc5)C4)ncnc3n2C)c1C | 5.51
47 | CCn1ncc(-c2nc3c(O[C@H]4CCN(c5cc(-n6cccn6)ncn5)C4)ncnc3n2C)c1C | 6.67
48 | CCn1ncc(-c2nc3c(O[C@@H]4CC[C@H](NC(=O)OC(C)(C)C)C4)ncnc3n2C)c1C | 6.40
49 | CCn1ncc(-c2nc3c(O[C@H]4CCN(C(=O)c5nc(C)oc5C)C4)ncnc3n2C)c1C | 8.14
50 | CCn1ncc(-c2nc3c(O[C@H]4CCN(C(=O)c5cn6cccnc6n5)C4)ncnc3n2C)c1C | 7.00
51 | CCn1ncc(-c2nc3c(O[C@H]4CCN(c5nncc6ccccc56)C4)ncnc3n2C)c1C | 7.77
52 | CCn1ncc(-c2nc3c(O[C@H]4CCN(C(=O)c5c(C)nn(C)c5C)C4)ncnc3n2C)c1C | 7.13
53 | CCn1ncc(-c2nc3c(OC4CCN(C(=O)c5cnco5)C4)ncnc3n2C)c1C (stereo unspecified) | 7.77
54 | CCn1ncc(-c2nc3c(O[C@H]4CCN(C(=O)C5CCOCC5)C4)ncnc3n2C)c1C | 8.37
55 | CCOC(=O)C(C)NC(=O)N1CC[C@H](Oc2ncnc3c2nc(-c2cnn(CC)c2C)n3C)C1 (stereo partly specified) | 6.96
56 | CCC(=O)N1CC[C@H](Oc2ncnc3c2nc(C(F)(F)F)n3CC)C1 | 7.00
57 | CCn1c(-c2cnc(C)nc2)nc2c(O[C@H]3CCN(C(=O)N(C)c4ccccc4)C3)ncnc21 | 7.49
58 | CCn1ncc(-c2nc3c(OC4CC(C)N(C(=O)OC(C)(C)C)C4)ncnc3n2C)c1C (stereo unspecified) | 5.89
59 | CCn1ncc(-c2nc3c(OC4CCN(C(=O)C5CCCC5)CC4)ncnc3n2C)c1C | 6.26
60 | CCOC(=O)N1CC[C@H](Sc2ncnc3c2nc(-c2cnn(CC)c2C)n3C)C1 | 7.43
61 | CCn1ncc(-c2nc3c(O[C@H]4CCN(C(=O)c5c[nH]nn5)C4)ncnc3n2C)c1C | 7.92
62 | CCC(=O)N1CC[C@H](Oc2ncnc3c2nc(-c2cnc4[nH]ccc4c2)n3C)C1 | 7.72
63 | CCn1ncc(-c2nc3c(S[C@H]4CCN(C(=O)C5CCOCC5)C4)ncnc3n2C)c1C | 7.74

Row | SMILES | pIC50
64 | CCn1ncc(-c2nc3c(O[C@H]4CCN(C(=O)c5cnon5)C4)ncnc3n2C)c1C | 7.39
65 | CCn1ncc(-c2nc3c(O[C@H]4CCN(C(=O)Nc5cccc(C)c5)C4)ncnc3n2C)c1C | 6.19
66 | CCn1c(-c2cnc(C)nc2)nc2c(O[C@H]3CCN(C(=O)C4CNC4)C3)ncnc21 | 7.15
67 | CCn1ncc(-c2nc3c(O[C@H]4CCN(C(=O)c5cc6occc6[nH]5)C4)ncnc3n2C)c1C | 6.68
68 | Cn1c(-c2cncc3ccccc23)nc2c(O[C@H]3CCN(C(=O)OC(C)(C)C)C3)ncnc21 | 6.49
69 | CCn1c(-c2cnc(C)nc2)nc2c(O[C@H]3CCN(C(=O)[C@H]4C[C@H]5CC[C@@H]4C5)C3)ncnc21 | 8.92
70 | CCn1ncc(C(=O)N2CC[C@H](Oc3ncnc4c3nc(-c3cnn(CC)c3C)n4C)C2)c1C | 7.54
71 | CCn1c(-c2cnc(C)nc2)nc2c(O[C@@H]3CN(C(=O)OC(C)(C)C)C[C@H]3F)ncnc21.CCn1c(-c2cnc(C)nc2)nc2c(O[C@H]3CN(C(=O)OC(C)(C)C)C[C@@H]3F)ncnc21 | 8.48
72 | CCn1c(-c2cnc(C(F)(F)F)nc2)nc2c(O[C@H]3CCN(C(=O)C4CC4)C3)ncnc21 | 7.74
73 | CCC(=O)N1CC[C@H](Oc2ncnc3c2nc(Oc2cccc(C)c2C)n3C)C1 | 5.62
74 | Cn1c(-c2ccc(-n3ccnc3)cc2)nc2c(O[C@H]3CCN(C(=O)OC(C)(C)C)C3)ncnc21 | 6.48
75 | CCn1c(-c2cnc(C)nc2)nc2c(O[C@H]3CCN(C(=O)N4CCC(CO)C4)C3)ncnc21 (stereo partly specified) | 8.02
76 | CCn1ncc(-c2nc3c(O[C@H]4CCN(C(=O)c5cncn5C)C4)ncnc3n2C)c1C | 8.27
77 | CCn1c(-c2cnc(C)nc2)nc2c(O[C@H]3CCN(C(=O)C4[C@@H](C)[C@H]4C)C3)ncnc21 (stereo partly specified) | 7.92
78 | CCn1c(-c2cnc(C)nc2)nc2c(O[C@H]3CCN(C(=O)[C@@H]4CCC[C@H]4N)C3)ncnc21 | 7.41
79 | CCn1c(-c2cnc(C)nc2)nc2c(O[C@H]3CCN(C(=O)C=C(C)C)C3)ncnc21 | 8.36
80 | CCn1ncc(-c2nc3c(O[C@H]4CCN(C(=O)CC#N)C4)ncnc3n2C)c1C | 7.42
81 | CCC(=O)N1CC[C@H](Oc2ncnc3c2nc(Oc2cc(F)cc(OC)c2)n3C)C1 | 6.96
